Assays:
[1] = biological target: T1, Cytochrome P450 11B1, mitochondrial (Rattus norvegicus, UniProt P15393); assay: Inhibition of rat CYP11B1 expressed in hamster fibroblast using 500 nM [3H]-11-deoxycorticosterone as substrate after 7 hrs by HPLC analysis
T1 sequence (P15393 whole entry): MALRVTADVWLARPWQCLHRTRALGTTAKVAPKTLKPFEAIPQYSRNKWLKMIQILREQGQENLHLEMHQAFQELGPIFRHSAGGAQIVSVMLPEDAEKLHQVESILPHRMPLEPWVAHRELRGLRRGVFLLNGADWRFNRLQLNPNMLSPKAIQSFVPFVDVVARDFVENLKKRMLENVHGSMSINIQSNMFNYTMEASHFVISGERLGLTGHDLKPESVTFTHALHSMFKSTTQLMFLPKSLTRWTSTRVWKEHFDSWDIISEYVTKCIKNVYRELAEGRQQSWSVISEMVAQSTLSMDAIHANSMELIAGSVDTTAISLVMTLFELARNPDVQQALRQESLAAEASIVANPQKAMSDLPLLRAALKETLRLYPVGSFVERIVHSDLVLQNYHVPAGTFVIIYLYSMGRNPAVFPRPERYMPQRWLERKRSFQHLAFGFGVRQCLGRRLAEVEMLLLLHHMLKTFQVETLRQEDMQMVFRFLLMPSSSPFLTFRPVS

Aromatase = biological target: T2, Aromatase (Homo sapiens, UniProt P11511); assay: Inhibition of human CYP19 expressed in hamster fibroblast using 500 nM [1beta-3H] androstenedione as substrate by HPLC analysis
T2 sequence (P11511 whole entry): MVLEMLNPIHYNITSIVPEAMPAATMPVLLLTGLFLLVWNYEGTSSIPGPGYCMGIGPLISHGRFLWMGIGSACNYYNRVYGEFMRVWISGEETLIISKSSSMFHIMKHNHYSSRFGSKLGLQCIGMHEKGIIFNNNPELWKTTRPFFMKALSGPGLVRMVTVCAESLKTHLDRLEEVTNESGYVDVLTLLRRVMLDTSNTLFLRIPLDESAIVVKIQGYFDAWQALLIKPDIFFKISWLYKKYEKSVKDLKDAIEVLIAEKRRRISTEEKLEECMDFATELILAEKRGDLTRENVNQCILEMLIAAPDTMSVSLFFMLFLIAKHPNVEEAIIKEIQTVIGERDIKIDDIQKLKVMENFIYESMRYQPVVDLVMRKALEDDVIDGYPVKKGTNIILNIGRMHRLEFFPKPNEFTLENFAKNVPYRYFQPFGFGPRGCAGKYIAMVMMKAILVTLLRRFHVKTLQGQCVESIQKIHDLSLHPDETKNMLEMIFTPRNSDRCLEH

Homo sapiens = species on record: Homo sapiens; assay: Selectivity index, ratio of IC50 for human CYP11B2 to IC50 for human CYP11B1
[2] = biological target: T3, Cytochrome P450 11B2, mitochondrial (Homo sapiens, UniProt P19099); assay: Inhibition of human CYP11B2 expressed in hamster fibroblast using 100 nM [3H]-11-deoxycorticosterone as substrate after 45 mins by HPLC analysis
T3 sequence (P19099 whole entry): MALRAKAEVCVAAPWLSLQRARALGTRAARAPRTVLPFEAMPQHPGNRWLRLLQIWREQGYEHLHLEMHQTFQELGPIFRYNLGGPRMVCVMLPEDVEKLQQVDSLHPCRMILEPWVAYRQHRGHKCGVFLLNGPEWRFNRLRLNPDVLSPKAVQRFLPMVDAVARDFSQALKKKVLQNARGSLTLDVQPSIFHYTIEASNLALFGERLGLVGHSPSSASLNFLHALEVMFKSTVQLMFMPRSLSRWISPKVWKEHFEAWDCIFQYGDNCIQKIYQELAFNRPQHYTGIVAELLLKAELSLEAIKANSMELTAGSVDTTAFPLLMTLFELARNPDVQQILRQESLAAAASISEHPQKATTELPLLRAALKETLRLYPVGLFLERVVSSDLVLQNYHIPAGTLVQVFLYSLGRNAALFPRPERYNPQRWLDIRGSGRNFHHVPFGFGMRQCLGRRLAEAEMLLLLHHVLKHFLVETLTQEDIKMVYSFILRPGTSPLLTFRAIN

[3] = biological target: T4, Cytochrome P450 11B1, mitochondrial (Homo sapiens, UniProt P15538); assay: Inhibition of human CYP11B1 expressed in hamster fibroblast using 100 nM [3H]-11-deoxycorticosterone as substrate after 25 mins by HPLC analysis
T4 sequence (P15538 whole entry): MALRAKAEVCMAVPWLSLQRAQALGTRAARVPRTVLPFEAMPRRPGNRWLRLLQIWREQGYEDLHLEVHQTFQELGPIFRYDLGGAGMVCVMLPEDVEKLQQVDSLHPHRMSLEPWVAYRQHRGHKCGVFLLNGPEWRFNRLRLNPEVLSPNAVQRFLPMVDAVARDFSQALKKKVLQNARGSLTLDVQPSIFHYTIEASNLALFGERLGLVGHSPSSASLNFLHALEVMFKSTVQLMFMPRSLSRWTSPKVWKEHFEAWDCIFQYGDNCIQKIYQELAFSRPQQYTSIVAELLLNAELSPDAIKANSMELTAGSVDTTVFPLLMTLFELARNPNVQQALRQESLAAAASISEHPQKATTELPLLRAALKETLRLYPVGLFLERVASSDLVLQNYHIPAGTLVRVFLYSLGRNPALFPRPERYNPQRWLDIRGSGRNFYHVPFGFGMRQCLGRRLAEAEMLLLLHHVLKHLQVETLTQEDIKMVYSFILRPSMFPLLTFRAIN

[4] = Retention time of the compound by HPLC analysis; format: physicochemical

Structure (SMILES)	IC50 [1]	IC50 (Aromatase)	Selectivity Index (Homo sapiens)	IC50 [2]	IC50 [3]	Retention_time [4]
CC(C)(C(=O)c1cccnc1)c1cccnc1 [METYRAPONE]	4610 nM	> 5000 nM	–	–	–	–
O=[N+]([O-])c1ccc(-c2ccncc2)c(OCc2ccccc2)c1	648 nM	2420 nM	1.7	87 nM	50 nM	9.02 min
O=[N+]([O-])c1ccc(Cc2ccncc2)c(OCCc2ccccc2)c1	2850 nM	157 nM	2.7	16 nM	6 nM	9.55 min
CN(C)C(=O)c1ccc(-c2ccncc2)c(OCCc2ccccc2)c1	–	–	0.7	816 nM	1150 nM	7.51 min
Fc1ccc(-c2ccncc2)c(OCCc2ccccc2)c1	–	–	1.2	74 nM	60 nM	9.32 min
c1ccc(-c2ccc(Cn3ccnc3)cn2)cc1	> 10000 nM	> 5000 nM	13.3	–	–	–
O=[N+]([O-])c1ccc(-c2cccnc2)c(OCCCc2ccccc2)c1	2080 nM	137 nM	2.5	15 nM	6 nM	9.28 min
O=[N+]([O-])c1ccc(-c2ccncc2)cc1OCCc1ccccc1	–	–	0.6	714 nM	1200 nM	9.57 min
c1ccc(CCOc2cccnc2-c2cccnc2)cc1	–	–	0.9	1450 nM	1660 nM	7.73 min
O=[N+]([O-])c1ccc(-c2cccnc2)cc1OCCc1ccccc1	–	–	0.9	447 nM	508 nM	9.8 min
O=[N+]([O-])c1ccc(Cc2cccnc2)c(OCCc2ccccc2)c1	706 nM	128 nM	1.3	246 nM	182 nM	9.7 min
O=[N+]([O-])c1ccc(-c2ccncc2)c(OCCCc2ccccc2)c1	370 nM	4990 nM	2.4	18 nM	8 nM	9.33 min
COc1ccc(-c2ccncc2)c(OCCc2ccccc2)c1	–	–	1.5	70 nM	46 nM	9.2 min
O=[N+]([O-])c1ccc(-c2ccncc2)c(OCCc2ccccc2)c1	163 nM	1890 nM	3.5	7 nM	2 nM	9.21 min
c1ccc(CCOc2cccnc2-c2ccncc2)cc1	–	–	0.9	2440 nM	2670 nM	7.91 min
FC(F)(F)c1ccc(-c2ccncc2)c(OCCc2ccccc2)c1	–	2090 nM	0.9	24 nM	26 nM	10.13 min
Cc1cncc(Cc2ccc(-c3ccccc3)nc2)c1	–	> 5000 nM	15.1	–	–	–
O=C(Nc1ccc(-c2cccnc2)c(OCc2ccccc2)c1)c1ccc(F)cc1	–	–	0.6	756 nM	1210 nM	8.67 min
N#Cc1ccc(-c2ccncc2)c(OCCc2ccccc2)c1	441 nM	1550 nM	1.9	23 nM	12 nM	8.71 min

Now from value to compound:

IC50 [1]	IC50 (Aromatase)	Selectivity Index (Homo sapiens)	IC50 [2]	IC50 [3]	Retention_time [4]	Structure (SMILES)
–	–	1.2	945 nM	812 nM	10.3 min	FC(F)(F)c1ccc(-c2cccnc2)c(OCCc2ccccc2)c1
–	–	1.3	230 nM	183 nM	9.07 min	COc1ccc(-c2cccnc2)c(OCCc2ccccc2)c1
–	–	2.3	643 nM	279 nM	7.25 min	CC(=O)Nc1ccc(-c2cccnc2)c(OCc2ccccc2)c1
543 nM	165 nM	1.6	63 nM	38 nM	8.85 min	N#Cc1ccc(-c2cccnc2)c(OCCc2ccccc2)c1
–	–	0.5	299 nM	594 nM	7.56 min	CN(C)C(=O)c1ccc(-c2cccnc2)c(OCCc2ccccc2)c1
1310 nM	75 nM	4.1	53 nM	13 nM	9.13 min	O=[N+]([O-])c1ccc(-c2cccnc2)c(OCCc2ccccc2)c1
1500 nM	–	0.5	–	–	–	O=C1CCc2cc(-c3cccnc3)c(OCc3ccccc3)cc2N1
–	–	0.1	–	2490 nM	–	COc1cc2c(cc1-c1cccnc1)CCC(=O)N2
–	–	1.6	84 nM	51 nM	9.57 min	Fc1ccc(-c2cccnc2)c(OCCc2ccccc2)c1
1490 nM	146 nM	0.7	17 nM	23 nM	9.07 min	O=[N+]([O-])c1ccc(-c2cccnc2)c(OCc2ccccc2)c1
–	447 nM	0.5	260 nM	540 nM	5.63 min	Nc1ccc(-c2cccnc2)c(OCc2ccccc2)c1

From ChEMBL document CHEMBL3421536, “Identification of 4-(4-nitro-2-phenethoxyphenyl)pyridine as a promising new lead for discovering inhibitors of both human and rat 11β-Hydroxylase” (Eur J Med Chem, 2015)
